Experimental data as given in US20260184807A1, “Methods for Treating Rheumatoid Arthritis Using a Syndecan-1 Inhibitor or Syntenin-1 Inhibitor” (The United States Government as represented by the …, priority 2022, published 2026).

Tested on: RA monocyte-differentiated MΦs
Assay: CD14+CD86+GLUT1+ MΦ frequency by flow cytometry after Syntenin-1
Assay type: cell-based, human
Details: Syntenin-1 1000 ng/mL, 24 h; IL5Ra 2 μg/mL, PDZ1i 10 μM, mTORi 1 μM; FIGS. 3H, 3I
Description: (B, C) RA MΦs were treated with PBS (ctrl) or Syntenin-1 (1000 ng/mL) for 6 hours and transcription levels of HIF1α (n=10) (FIG. 3B). GLUT1, RAPTOR, HK2, PFK2, PDK1, PKM2 (FIG. 3C) were quantified by qRT-PCR (n=6). […] FIGS. 3H, 3I) after 24 hours impact of treatment was determined on CD14+CD86+ GLUT1+ frequency by flow cytometry (n=4-5). […] Data are presented as mean±SEM; significant differences were determined by Mann-Whitney test, Student's t-test, two-way-ANOVA, or one-way ANOVA. *p<0.05, **p<0.01, ***p<0.001, ****p<0.0001. ANOVA, analysis of variance.
Flow cytometry. Depending on the assay negatively selected human monocytes or human peripheral blood mononuclear cells from Rheumatoid Arthritis patients were stained with anti-CD14, anti-CD86, anti-CD206, anti-CD4 (BioLegend Inc.), or GLUT1 (Novus Biologicals) fluorescently labeled antibodies. Prior to intracellular staining, cells were stimulated with PMA (100 ng/ml) and ionomycin (1.5 μM; both Sigma-Aldrich) in the presence of Brefeldin A (eBioscience, San Diego, USA) for 3-4 h. To exclude dead cells, cells were stained by the ZombieViolet Fixable Viability Kit (BioLegend Inc.). […]
Syntenin-1 stimulation and inhibition. […] Cells were subsequently harvested in TRIzol reagent (Life Technologies) or RIPA buffer (Cell Signaling Technology) for mRNA quantification and western blot analysis; conditioned media was collected for ELISA.

CO[C@H]1C[C@@H]2CC[C@@H](C)[C@@](O)(O2)C(=O)C(=O)N2CCCC[C@H]2C(=O)O[C@H]([C@H](C)C[C@@H]2CC[C@@H](OCCO)[C@H](OC)C2)CC(=O)[C@H](C)/C=C(\C)[C@@H](O)[C@@H](OC)C(=O)[C@H](C)C[C@H](C)/C=C/C=C/C=C/1C [mTORi, Everolimus]
Syntenin-1 reconfiguration of naïve cells into RA CD14+CD86+GLUT1+MΦs: exclusively impaired
